Measured values: patent US12077608B2, “Stapled H2 pyrin peptides” (H. LEE MOFFITT CANCER CENTER AND RESEARCH INSTITUTE, INC., priority 2018, dated 2024)
Where two headings read alike, the source gives them in different places. Bridge positions count the residues as written; N and C are the ends. Square brackets hold non-standard residues; d marks the D form. Ends that are not written are not given here. Peptide text beside a SMILES is read from it. * marks the point of attachment. FITC = O=C1OC2(c3ccc(O)cc3Oc3cc(O)ccc32)c2ccc(NC(=S)*)cc21; S5 = C=CCCC[C@](C)(N)C(=O)O; Nle = CCCC[C@H](N)C(=O)O; βAla = NCCC(=O)O

Legend:
[1] = Circular dichroism (CD) secondary structure of the peptides; assay type: physicochemical; settings: aqueous solution; 100 μM peptide in 10 mM potassium phosphate, 100 mM potassium fluoride buffer (pH=7.5)
Protocol: Circular dichroism (CD) was used to determine the secondary structure of the peptides. […] Hydrocarbon stapling promoted α-helix contents with SAH-POP1-4 and SAH-POP1-8 having the highest in aqueous solution.
CD spectra were recorded on an AVIV Model 215 Circular Dichroism Spectrometer. Each spectrum was collected with the wavelength between 190 to 260 nm, 0.5 nm increments, and 0.5 s averaging time using a 1-mm path length cell. The peptide concentration was 100 μM in 10 mM potassium phosphate and 100 mM potassium fluoride buffer (pH=7.5). The studied peptides were completely dissolved in this buffer. CD spectra were initially plotted as wavelength versus millidgree, the default output of the instrument. Once the precise peptide concentration was confirmed, the mean residue ellipticity [Θ] was calculated for the y-axis.

[2] = tested on: caspase-1 activity in Human THP-1 monocytes; experiment: Promega Caspase-Glo 1 Inflammasome Assay (cell-based bioluminescent caspase-1 activity assay); settings: for inhibited caspase-1 activities: 5 μM inhibitor, PMA-differentiated THP-1, LPS and nigericin stimulated
Text: Promega Caspase-Glo™ 1 Inflammasome Assay. A cell-based bioluminescent caspase-1 activity assay (O'Brien et al., 2017) (Promega Caspase-Glo™ | Inflammasome Assay Kit G9951) was used to evaluate the inhibitory activity of SAH-POP1-4 and SAH-POP1-8 on inhibition of inflammasome formation and caspase-1 activation. Human THP-1 monocytes were differentiated with phorbol 12-myristate 13-acetate (PMA), and treated sequentially with lipopolysaccharide (LPS), a Toll-like receptor 4 (TLR4) agonist, and nigericin, a K^+ ionophore to promote K^+ efflux, resulting in NLRP3- and ASC-dependent caspase-1 activation. The cells were then treated with the inhibitors. […] Experimental Procedure for Promega caspase-Glo™ 1 Inflammasome Assay: THP1 cells were seeded at 5×10^5/ml in RPMI1640 medium with 10% FCS in 96-well plates and cultivated in the presence of 50 nM phorbol-12-myristate-13-acetate (PMA) for 24 h. Then the media was replaced with fresh media and incubated for 24 h. The cells were stimulated with 200 ng/ml LPS in E. coli (Sigma) for 3 h. The media was removed and replaced with serum-free media (OptiMEM) containing DMSO (1:1,000), 5 μM inhibitors for 30 min. Cells were then stimulated with the inflammasome activators: 5 μM nigericin 2 h. Control samples were incubated with medium lacking LPS or nigericin. Then the activity of the active caspase-1 was measured by Caspase-Glo™ 1 inflammasome assay (Promega). A cell-based bioluminescent caspase-1 activity assay (Promega Caspase-Glo™ 1 Inflammasome Assay Kit G9951) was used to evaluate the inhibitory activity of SAH-POP1-17 and SAH-POP1-18 on inhibition of inflammasome formation and caspase-1 activation. Human THP-1 monocytes were differentiated with phorbol 12-myristate 13-acetate (PMA), and treated sequentially with lipopolysaccharide (LPS), a Toll-like receptor 4 (TLR4) agonist, and nigericin, a K^+ ionophore to promote K^+ efflux, resulting in NLRP3- and ASC-dependent caspase-1 activation. The cells were then treated with the inhibitors. […] Experimental Procedure for Promega caspase-Glo™ 1 Inflammasome Assay: THP1 cells were seeded at 5×10^5/ml in RPMI1640 medium with 10% FCS in 96-well plates and cultivated in the presence of 50 nM phorbol-12-myristate-13-acetate (PMA) for 24 h. Then the media was replaced with fresh media and incubated for 24 h. The cells were stimulated with 200 ng/ml LPS in E. coli (Sigma) for 3 h. The media was removed and replaced with serum-free media (OptiMEM) containing DMSO (1:1,000), 5 μM inhibitors for 30 min. Cells were then stimulated with the inflammasome activators: 5 μM nigericin 2 h. Control samples were incubated with medium lacking LPS or nigericin. Then the activity of the active caspase-1 was measured by Caspase-Glo™ 1 inflammasome assay (Promega).

GST-NLRP3^PYD = target: T1, GST-NLRP3^PYD (Homo sapiens, UniProt Q96P20); experiment: KD (μM) | GST-NLRP3^PYD
T1 construct: human NLRP3 (residues 3-110) was cloned into a pET-21b vector; made in house; host or cells: E. coli BL21 DE3
T1 sequence (Q96P20 3-110): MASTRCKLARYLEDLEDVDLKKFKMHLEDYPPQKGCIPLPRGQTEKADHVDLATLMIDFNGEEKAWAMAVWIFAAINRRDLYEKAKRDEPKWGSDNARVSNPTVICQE
Text: Table printed on a drawing sheet, FIG. 10
Head of the field: KD (μM) | GST-NLRP3^PYD
The patent's description of the figure: FIG. 10 is a table showing the results from a fluorescence anisotropy binding assay to determine the accurate binding affinities of stapled peptides fPOP1-H2 (SEQ ID NO: 2), fSAH-POP1-1 (SEQ ID NO: 1), fSAH-POP1-3 (SEQ ID NO: 3), fSAH-POP1-4 (SEQ ID NO: 4), fSAH-POP1-5 (SEQ ID NO: 5), fSAH-POP1-6 (SEQ ID NO: 6), fSAH-POP1-7 (SEQ ID NO: 7), fSAH-POP1-8 (SEQ ID NO: 8), fSAH-POP1-9 (SEQ ID NO: 9), fSAH-POP1-10 (SEQ ID NO: 10), fSAH-POP1-11 (SEQ ID NO: 11), fSAH-POP1-12 (SEQ ID NO: 12), fSAH-POP1-13 (SEQ ID NO: 13), fSAH-POP1-14 (SEQ ID NO: 14), fSAH-POP1-15 (SEQ ID NO: 15), fSAH-POP1-16 (SEQ ID NO: 16), fSAH-POP1-17 (SEQ ID NO: 17), fSAH-POP1-18 (SEQ ID NO: 18), fSAH-POP1-19 (SEQ ID NO: 19), fSAH-POP1-20 (SEQ ID NO: 20), fSAH-POP1-21 (SEQ ID NO: 21), fSAH-POP1-22 (SEQ ID NO: 22), fSAH-POP1-23 (SEQ ID NO: 23), fSAH-POP1-24 (SEQ ID NO: 24), fSAH-POP1-25 (SEQ ID NO: 25), fSAH-POP1-26 (SEQ ID NO: 26), fSAH-POP1-27 (SEQ ID NO: 27), fSAH-POP1-28 (SEQ ID NO: 28), fSAH-POP1-29 (SEQ ID NO: 29), fSAH-POP1-30 (SEQ ID NO: 30), fSAH-POP1-31 (SEQ ID NO: 31).
First copying reader's note: In the structures S5, NL (N with lowered L) and NH2 carry lowered signs, a drawn bracket joins the two S5 residues (staple), and the SEQ ID NO column is printed outside the table frame. […]

[3] = tested on: ASC speck formation in THP-1 ASC-GFP cells; experiment: ASC speck assay, live-cell imaging; assay type: cell-based, Human; settings: 20 μM peptide; nigericin-activated THP-1 ASC-GFP cells
Protocol: ASC speck is a hallmark of inflammasome formation (Dick et al., 2016; Hoss et al., 2017) and observable by microscopy (Doyle et al., 2012; Stutz et al., 2013). THP-1 ASC-GFP cells stably expressing the ASC-GFP fusion protein (InvivoGen Catalog #: thp-ascgfp) were used to visualize the inhibitory effect of SAH-POP1-4 on ASC specks formation (Fernandes-Alnemri et al., 2007).
Experimental Procedure for ASC Speck Assay. THP1 ASC-GFP cells were seeded at 2×10^6/ml (0.7-1 mL) in RPMI1640 medium with 10% FCS in FluoroDish (FD35-100) and cultivated in the presence of 50 nM phorbol-12-myristate-13-acetate (PMA) for 24 h, then media was replaced by fresh media and incubated for 24 h. Then cells were stimulated with 200 ng/ml LPS from E. coli (sigma) for 3 h. The media was removed and replaced with serum-free medium (OptiMEM) containing DMSO (1:1,000), 20 μM inhibitors for 30 min. […] Control samples were incubated with media lacking LPS or nigericin. Then, ASC specks were tested by confocal microscopy SP8 (Leica Microsystems).
ASC speck is the hallmark of inflammasome formation and observable by microscopy. THP-1 ASC-GFP cells stably expressing the ASC-GFP fusion protein (InvivoGen Catalog #: thp-ascgfp) were used to visualize the inhibitory effect of SAH-POP1-17 on ASC specks formation (Fernandes-Alnemri et al., 2007). […] SAH-POP1-17 at 5 μM inhibited ASC speck formation to 4%, and SAH-POP1-18 at 5 μM inhibited ASC speck formation to 8%.

## CCCC[C@H](NC(=O)[C@H](CCCCN)NC(=O)[C@]1(C)CCCC=CCCC[C@](C)(NC(=O)[C@@H](N)CCC(=O)O)C(=O)N[C@@H](CC(C)C)C(=O)N[C@@H](CCCCN)C(=O)N[C@@H](CCCCN)C(=O)N1)C(=O)N[C@@H](CCCCN)C(=O)N[C@@H](CC(C)C)C(=O)NCC(=O)N[C@H](C(=O)N[C@@H](C)C(N)=O)[C@@H](C)O [SAH-POP1-8] (H-E[S5]LKK[S5]K[Nle]KLGTA-NH2; staple 2-6; N-terminus assumed)
[1]
  α-helical structure / α-helix contents by circular dichroism: highest
[2]
  inhibited caspase-1 activities: 41%
[2]; THP-1 cells, inferred from caspase-1 assay
  cell permeability: cell permeable

## CCCC[C@H](NC(=O)[C@H](CCCCN)NC(=O)[C@H](Cc1ccccc1)NC(=O)[C@H](CCCCN)NC(=O)[C@H](CCCCN)NC(=O)[C@H](CC(C)C)NC(=O)[C@H](CCC(=O)O)NC(=O)[C@H](CCC(=O)O)NC(=O)CCNC(=S)Nc1ccc2c(c1)C(=O)OC21c2ccc(O)cc2Oc2cc(O)ccc21)C(=O)N[C@@H](CCCCN)C(=O)N[C@@H](CC(C)C)C(=O)NCC(=O)N[C@H](C(=O)N[C@H](C(N)=O)C(C)C)[C@@H](C)O [fPOP1-H2] ({FITC-βAla}-EELKKFK[Nle]KLGTV-NH2)
GST-NLRP3^PYD
  Kd: 27 ± 2.3 µM

## SAH-POP1-4: hydrocarbon stapled peptide, amino acid sequence ES5LKKS5KMKLGTV (E[S5]LKK[S5]KMKLGTV-NH2; staple 2-6; N-terminus assumed; SMILES CSCC[C@H](NC(=O)[C@H](CCCCN)NC(=O)[C@]1(C)CCCC=CCCC[C@](C)(NC(=O)[C@@H](N)CCC(=O)O)C(=O)N[C@@H](CC(C)C)C(=O)N[C@@H](CCCCN)C(=O)N[C@@H](CCCCN)C(=O)N1)C(=O)N[C@@H](CCCCN)C(=O)N[C@@H](CC(C)C)C(=O)NCC(=O)N[C@H](C(=O)N[C@H](C(N)=O)C(C)C)[C@@H](C)O)
[1]
  α-helical structure / α-helix contents by circular dichroism: highest
[2]
  cell permeability: cell permeable
  inhibited caspase-1 activities: 43%
[3]
  inhibition of ASC speck formation: completely inhibited
